From patent US9546164B2 (GENENTECH, INC., priority 2013, dated 2017)
Structures can show the parent of a compound that is named as a salt. Where two headings read alike, the source gives them in different places. Values belong to the compound of their own block, whether it stands above or below them.

Experiments:
NaV1.5 [1] = target: T1, NaV1.5 (Homo sapiens (Human), UniProt Q14524); experiment: Patch voltage clamp electrophysiological assay (EP), NaV1.5
Protocol: (§1) The following patch voltage clamp electrophysiology studies were performed on representative compounds of the invention using human embryonic kidney cells (HEK), permanently transfected with an expression vector containing the full-length cDNA coding for the desired human sodium channel α-subunit, grown in culture media containing 10% FBS, 1% PSG, and 0.5 mg/mL G418 at 37° C. with 5% CO2. […] The β1 subunit was coexpressed in both the NaV1.7 and NaV1.5 cell lines.
(§2) Sodium currents were measured rising the patch clamp technique in the whole-cell configuration using either a PatchXpress automated voltage clamp or manually using an Axopatch 200B (Axon Instruments) or Model 2400 (A-M systems) amplifier. […] The pipette was filled with a solution comprised of: 5 mM NaCl, 10 mM CsCl, 120 mM CsF, 0.1 mM CaCl2, 2 mM MgCl2, 10 mM HEPES, 10 mM EGTA; and adjusted to pH 7.2 with CsOH. The external solution had the following composition: 140 mM NaCl, 5 mM KCl, 2 mM CaCl2, 1 mM MgCl2, 10 mM HEPES; and adjusted to pH 7.4 with NaOH. In some studies, the external sodium was reduced by equimolar replacement with choline. Osmolality in the CsF internal and NaCl external solutions was adjusted to 300 mOsm/kg and 310 mOsm/kg with glucose, respectively. All recordings were performed at ambient temperature in a bath chamber with a volume of 150 μL. Control sodium currents were measured in 0.5% DMSO. Controls and representative compounds of the invention were applied to the recording chamber through a 4-pinch or 8-pinch valve bath perfusion system manufactured by ALA Scientific Instruments.
(§3) Currents were recorded at 40 kHz sampling frequency, filtered at 5 Hz, and stored using a Digidata-1322A analogue/digital interface with the pClamp software (Axon instruments). Series resistance compensation was applied (60-80%). […] All statistics in this study are given as mean±SD.
(§4) The membrane potential was maintained at a voltage where reactivation of the channel is complete (which was −60 mV for both NaV1.7 and NaV1.5). The voltage is then stepped back to a very negative (Vhold=150 mV) voltage for 20 ms and then a test poise is applied to quantify the compound block. The 20 ms brief repolarization was long enough for compound-free channels to completely recover from fast inactivation, but the compound-bound channels recovered more slowly such that negligible recovery could occur during this interval. The percent decrease in sodium current following wash-on of compound was taken as the percent block of sodium channels.

hNav1.7 = hNav1.7 (Homo sapiens (Human), UniProt Q15858); experiment: Tritiated sulfonamide competitive binding to membranes from cells expressing hNav1.7 and the β1 subunit;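 note: Filter-bound radioactivity counted by liquid scintillation, nonspecific binding defined with excess unlabelled ligand, IC50 fitted to percent inhibition of specific binding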
NaV1.7 = NaV1.7 (Homo sapiens (Human), UniProt Q15858); experiment: Patch voltage clamp electrophysiological assay (EP), NaV1.7; format: cell-based; conditions: HEK-293 cells stably expressing human NaV1.7 with β1 subunit, whole-cell patch clamp, holding −60 mV
Protocol: Electrophysiological Assay (EP) (In vitro Assay)
Control sodium currents were measured in 0.5% DMSO.
Series resistance compensation was applied (60-80%).

NaV1.5 [2] = target: T1, NaV1.5
Protocol: as §1, §2, §3, §4

[3] = read-out: NaV1.5 EP, HEK-293 cells stably expressing human NaV1.5 with β1 subunit, whole-cell patch clamp, holding −60 mV
[4] = read-out: Ligand Binding Assay, 100 pM [3H]compound, membranes with hNav1.7 and β1 subunit, 18 h, room temperature

NaV1.7, sequence (Q15858 other isoform, or with tags, fused parts or gaps): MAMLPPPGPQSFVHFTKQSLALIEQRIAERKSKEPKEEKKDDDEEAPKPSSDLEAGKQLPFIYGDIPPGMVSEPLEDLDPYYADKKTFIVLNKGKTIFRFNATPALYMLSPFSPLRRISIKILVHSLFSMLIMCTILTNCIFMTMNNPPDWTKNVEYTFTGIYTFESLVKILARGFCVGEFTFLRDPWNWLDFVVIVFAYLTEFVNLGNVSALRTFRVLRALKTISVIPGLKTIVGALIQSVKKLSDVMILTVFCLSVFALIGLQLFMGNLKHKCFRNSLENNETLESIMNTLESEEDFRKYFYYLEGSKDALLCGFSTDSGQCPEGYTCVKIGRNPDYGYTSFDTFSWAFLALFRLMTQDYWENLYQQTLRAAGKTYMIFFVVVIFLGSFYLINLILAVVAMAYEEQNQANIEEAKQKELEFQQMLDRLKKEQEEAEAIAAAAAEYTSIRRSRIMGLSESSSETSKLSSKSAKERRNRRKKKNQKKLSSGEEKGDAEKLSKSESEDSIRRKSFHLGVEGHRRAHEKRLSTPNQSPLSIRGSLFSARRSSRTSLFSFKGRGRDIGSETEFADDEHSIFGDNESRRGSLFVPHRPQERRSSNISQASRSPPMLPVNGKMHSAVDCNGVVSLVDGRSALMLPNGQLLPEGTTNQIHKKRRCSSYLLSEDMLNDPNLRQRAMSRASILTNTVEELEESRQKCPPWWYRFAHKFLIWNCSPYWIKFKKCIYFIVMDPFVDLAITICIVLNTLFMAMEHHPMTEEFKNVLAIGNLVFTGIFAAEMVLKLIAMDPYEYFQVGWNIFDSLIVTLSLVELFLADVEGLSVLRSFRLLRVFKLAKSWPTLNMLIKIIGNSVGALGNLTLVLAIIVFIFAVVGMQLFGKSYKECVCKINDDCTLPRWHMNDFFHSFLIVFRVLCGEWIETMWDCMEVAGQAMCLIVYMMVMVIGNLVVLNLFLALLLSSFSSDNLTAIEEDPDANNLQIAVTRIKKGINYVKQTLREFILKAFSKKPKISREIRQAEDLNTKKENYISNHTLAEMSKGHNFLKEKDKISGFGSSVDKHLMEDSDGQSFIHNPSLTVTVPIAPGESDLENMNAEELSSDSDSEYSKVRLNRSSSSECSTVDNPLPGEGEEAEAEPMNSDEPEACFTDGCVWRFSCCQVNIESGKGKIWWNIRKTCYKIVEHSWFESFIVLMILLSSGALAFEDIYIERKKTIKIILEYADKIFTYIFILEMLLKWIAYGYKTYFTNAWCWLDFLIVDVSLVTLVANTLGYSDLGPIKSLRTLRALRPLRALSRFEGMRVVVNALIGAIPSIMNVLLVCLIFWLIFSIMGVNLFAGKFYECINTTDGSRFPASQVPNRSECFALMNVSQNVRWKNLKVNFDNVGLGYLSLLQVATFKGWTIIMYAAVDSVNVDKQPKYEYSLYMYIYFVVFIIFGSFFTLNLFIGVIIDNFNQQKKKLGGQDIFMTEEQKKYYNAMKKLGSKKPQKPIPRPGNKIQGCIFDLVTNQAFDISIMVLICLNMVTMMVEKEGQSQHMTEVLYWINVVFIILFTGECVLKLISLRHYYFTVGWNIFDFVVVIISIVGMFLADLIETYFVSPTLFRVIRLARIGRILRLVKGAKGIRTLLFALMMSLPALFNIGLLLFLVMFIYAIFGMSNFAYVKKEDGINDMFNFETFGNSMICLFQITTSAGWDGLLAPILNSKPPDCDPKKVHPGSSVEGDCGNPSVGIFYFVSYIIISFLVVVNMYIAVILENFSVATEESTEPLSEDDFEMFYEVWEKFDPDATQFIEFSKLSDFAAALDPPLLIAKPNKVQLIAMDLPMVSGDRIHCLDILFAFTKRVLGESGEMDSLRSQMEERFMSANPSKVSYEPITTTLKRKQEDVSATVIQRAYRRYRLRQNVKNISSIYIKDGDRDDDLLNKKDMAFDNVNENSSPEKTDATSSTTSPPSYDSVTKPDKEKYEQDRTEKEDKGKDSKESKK
NaV1.7, sequence (Q07699 19-218 partner): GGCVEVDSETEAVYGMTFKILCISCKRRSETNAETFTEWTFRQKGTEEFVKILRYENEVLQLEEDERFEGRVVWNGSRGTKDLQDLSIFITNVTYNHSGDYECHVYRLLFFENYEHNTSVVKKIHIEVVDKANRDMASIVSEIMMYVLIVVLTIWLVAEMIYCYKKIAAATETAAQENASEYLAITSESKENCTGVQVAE
hNav1.7, sequence (Q15858 other isoform, or with tags, fused parts or gaps): as the sequence (Q15858 other isoform, or with tags, fused parts or gaps) above
hNav1.7, sequence (Q07699 19-218 partner): as the sequence (Q07699 19-218 partner) above
T1 sequence (Q14524 whole entry): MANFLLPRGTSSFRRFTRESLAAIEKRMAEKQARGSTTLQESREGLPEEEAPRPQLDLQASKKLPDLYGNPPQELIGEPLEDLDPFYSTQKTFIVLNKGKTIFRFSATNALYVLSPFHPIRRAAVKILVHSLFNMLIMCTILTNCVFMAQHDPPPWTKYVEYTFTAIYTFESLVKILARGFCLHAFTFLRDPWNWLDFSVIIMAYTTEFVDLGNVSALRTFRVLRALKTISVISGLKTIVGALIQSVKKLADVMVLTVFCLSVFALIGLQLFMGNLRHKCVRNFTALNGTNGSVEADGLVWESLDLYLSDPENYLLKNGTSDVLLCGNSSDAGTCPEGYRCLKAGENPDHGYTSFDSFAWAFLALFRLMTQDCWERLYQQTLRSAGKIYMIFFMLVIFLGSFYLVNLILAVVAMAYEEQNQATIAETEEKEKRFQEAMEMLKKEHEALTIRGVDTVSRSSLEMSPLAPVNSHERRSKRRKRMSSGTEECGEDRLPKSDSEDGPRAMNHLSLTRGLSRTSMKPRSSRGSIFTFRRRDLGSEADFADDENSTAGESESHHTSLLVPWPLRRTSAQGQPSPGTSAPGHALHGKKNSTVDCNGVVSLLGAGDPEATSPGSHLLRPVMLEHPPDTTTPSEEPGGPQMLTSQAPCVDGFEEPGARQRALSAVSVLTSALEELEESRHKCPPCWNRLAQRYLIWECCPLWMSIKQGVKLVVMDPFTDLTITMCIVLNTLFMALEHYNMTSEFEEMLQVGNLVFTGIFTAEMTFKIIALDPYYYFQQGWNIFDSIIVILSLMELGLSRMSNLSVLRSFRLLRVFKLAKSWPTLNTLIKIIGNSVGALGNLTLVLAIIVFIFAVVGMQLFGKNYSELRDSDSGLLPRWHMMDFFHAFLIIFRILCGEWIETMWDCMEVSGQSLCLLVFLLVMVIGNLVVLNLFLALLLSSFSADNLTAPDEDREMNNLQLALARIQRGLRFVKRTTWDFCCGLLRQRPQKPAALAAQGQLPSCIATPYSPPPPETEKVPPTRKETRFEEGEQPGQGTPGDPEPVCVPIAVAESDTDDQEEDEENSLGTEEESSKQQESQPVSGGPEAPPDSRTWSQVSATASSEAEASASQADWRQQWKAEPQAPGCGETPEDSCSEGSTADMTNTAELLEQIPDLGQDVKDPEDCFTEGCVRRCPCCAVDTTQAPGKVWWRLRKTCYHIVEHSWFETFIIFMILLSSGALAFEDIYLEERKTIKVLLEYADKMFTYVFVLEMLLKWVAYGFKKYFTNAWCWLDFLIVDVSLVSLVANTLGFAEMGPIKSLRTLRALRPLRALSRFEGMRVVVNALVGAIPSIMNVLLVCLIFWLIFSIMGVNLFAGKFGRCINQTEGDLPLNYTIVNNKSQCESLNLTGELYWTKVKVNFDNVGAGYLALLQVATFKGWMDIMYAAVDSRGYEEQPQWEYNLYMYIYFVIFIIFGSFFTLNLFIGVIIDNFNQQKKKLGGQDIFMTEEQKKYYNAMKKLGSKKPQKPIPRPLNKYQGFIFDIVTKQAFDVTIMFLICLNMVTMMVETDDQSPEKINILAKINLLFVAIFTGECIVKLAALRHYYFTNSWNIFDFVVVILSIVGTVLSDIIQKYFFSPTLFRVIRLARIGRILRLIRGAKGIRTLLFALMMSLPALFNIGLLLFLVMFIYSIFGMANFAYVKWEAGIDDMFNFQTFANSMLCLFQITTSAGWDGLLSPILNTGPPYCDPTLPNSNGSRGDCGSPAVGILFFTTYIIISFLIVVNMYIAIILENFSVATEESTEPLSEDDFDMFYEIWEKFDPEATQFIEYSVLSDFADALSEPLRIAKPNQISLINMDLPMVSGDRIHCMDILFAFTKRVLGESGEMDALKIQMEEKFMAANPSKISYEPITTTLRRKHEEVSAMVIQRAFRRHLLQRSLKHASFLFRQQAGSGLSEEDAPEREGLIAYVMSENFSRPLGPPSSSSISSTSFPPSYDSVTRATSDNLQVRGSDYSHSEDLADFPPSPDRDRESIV

SMILES: CS(=O)(=O)NC(=O)c1cc(C2CC2)c(OCC2CCN(Cc3cc(Cl)cc(Cl)c3C#N)CC2)cc1F [Example 594, 5-Cyclopropyl-4-((1-(3,5-dichloro-2-cyanobenzyl)piperidin-4-yl)methoxy)-2-fluoro-N-(methylsulfonyl)benzamide]
- IC50 (NaV1.5 [1]; [3]): 623 nM
- IC50 (hNav1.7; [4]): 137 nM
- IC50 (NaV1.7): 8.4 nM

SMILES: O=C(NS(=O)(=O)N1CCC1)c1cc(C2CC2)c(O[C@@H]2CCCN(Cc3ccc(F)cc3Cl)C2)cc1F [Example 6, (R)—N-(azetidin-1-ylsulfonyl)-4-((1-(2-chloro-4-fluorobenzyl)piperidin-3-yl)oxy)-5-cyclopropyl-2-fluoroenzamide]
- IC50 (NaV1.5 [1]): 33.1 nM
- IC50 (hNav1.7): 3 nM
- IC50 (NaV1.7): 0.9 nM

SMILES: O=C(NS(=O)(=O)N1CCC1)c1cc(C2CC2)c(O[C@@H]2CCCN(Cc3ccccc3)C2)cc1F [Example 1, (R)—N-(azetidin-1-ylsulfonyl)-4-((1-benzylpiperidin-3-yl)oxy)-5-cyclopropyl-2-fluorobenzamide]
- IC50 (NaV1.5 [1]; [3]): 2760 nM
- IC50 (hNav1.7; [4]): 35.6 nM
- IC50 (NaV1.7): 22.6 nM

SMILES: O=C(NS(=O)(=O)N1CCC1)c1cc(C2CC2)c(OCC2CC3CCC(C2)N3C(c2ccccc2)c2ccccc2)cc1F (stereo not shown) [Example 49, N-(azetidin-1-ylsulfonyl)-4-((8-benzhydryl-8-azabicyclo[3.2.1]-octan-3-yl)methoxy)-5-cyclopropyl-2-fluorobenzamide]
- IC50 (NaV1.5 [2]): 199 nM

SMILES: COC[C@H](c1cc(Cl)cc(Cl)c1)N1CCC(COc2cc(F)c(C(=O)NS(=O)(=O)C3CC3)cc2C2CC2)CC1 (single isomer, unassigned) [Example 165]
- IC50 (NaV1.5 [1]; [3]): 49 nM
- IC50 (hNav1.7; [4]): 2.3 nM
- IC50 (NaV1.7): 2.4 nM

The next lines start with results.

- IC50 (hNav1.7; [4]): 6.3 nM
- IC50 (NaV1.7): 3 nM
SMILES: CCS(=O)(=O)NC(=O)c1cc(C2CC2)c(OCC2CCN([C@H](COC)c3cc(Cl)cc(Cl)c3)CC2)cc1F (single isomer, unassigned) [Example 169]
- IC50 (NaV1.5 [1]; [3]): 280 nM

- IC50 (hNav1.7; [4]): 6.2 nM
- IC50 (NaV1.7): 3 nM
SMILES: CCS(=O)(=O)NC(=O)c1cc(C2CC2)c(OCC2CCN([C@@H](COC)c3cc(Cl)cc(Cl)c3)CC2)cc1F (single isomer, unassigned) [Example 168]
- IC50 (NaV1.5 [1]; [3]): 78 nM

- IC50 (hNav1.7; [4]): 2.7 nM
- IC50 (NaV1.7): 3 nM
SMILES: C[C@H](c1ccc(Cl)c(C2CC2)n1)N1CCC[C@@H](Oc2cc(F)c(C(=O)NS(C)(=O)=O)cc2C2CC2)C1 (single isomer, unassigned) [Example 309]
- IC50 (NaV1.5 [1]; [3]): 380 nM

- IC50 (hNav1.7; [4]): 5.6 nM
- IC50 (NaV1.7): < 3 nM
SMILES: O=C(NS(=O)(=O)C1CC1)c1cc(C2CC2)c(CN2CCC(Oc3ncc(C4CC4)cc3Cl)CC2)cc1F [Example 474, 4-((4-((3-chloro-5-cyclopropylpyridin-2-yl)oxy)piperidin-1-yl)methyl)-5-cyclopropyl-N-(cyclopropylsulfonyl)-2-fluorobenzamide hydrochloride]
- IC50 (NaV1.5 [1]; [3]): 449 nM
